In assay [1] the test system is rat hippocampal neurons. In words: Cell death assay (TUNEL) after axonal Aβ1-42/Aβ42 treatment in microfluidic chambers. In kind it is cell-based. Particulars: Aβ oligomers 36 hours, nelfinavir in the last 24 hours, 10/15 μM nelfinavir. On the procedure:
(§1) Hippocampi were dissected from embryonic day (E) 16-18 rat embryos obtained from pregnant Sprague-Dawley dams (Envigo). All animal procedures were approved by the Institutional Animal Care and Use Committee at Columbia University. Cell dissociation was performed using TripLE Express. Neurons (50,000-60,000 per microfluidic chamber) were plated on 0.1 mg ml^-1 poly-D-lysine (Millipore Sigma) and 2 μg ml^-1 laminin (Bio-Techne) coated substrates and grown in Neurobasal supplemented with 10% fetal bovine serum, 2 mM L-glutamine, 1 mM sodium pyruvate, and antibiotics (50 U ml^-1 penicillin-streptomycin). Tripartite microfluidic chambers were produced with Dow Corning Sylgard 184 Silicone Encapsulant Clear Kit (10:1 mix ratio; Ellsworth Adhesives) cured at […] for at least 4 hours following published protocols (Park et al. 2006; Desai et al. 2009). Chamber design incorporated two sets of 200-μm-long microgroove barriers to exclude crossing of cell bodies and dendrites (Taylor et al. 2005; […] et al. 2009). After 24 hours, medium was changed to Neurobasal containing 1×B27 and 2 mM L-glutamine. Subsequent medium changes (half volumes) were performed at DIV4 and thereafter every 3-5 days. To prevent glial cell proliferation, medium changes included 5-flurodeoxyuridine and uridine (final concentration […]; Millipore Sigma) after DIV4. […]

Assay [2] has as its system CREB3L2-ATF4 heterodimers. The assay is described as follows: Proximity ligation assay (PLA) of axonal CREB3L2-ATF4 heterodimers. The assay is classed as cell-based, rat. Particulars: axons treated with Aβ oligomers for 36 hours plus nelfinavir. On the procedure:
as §1

On to `Cc1c(O)cccc1C(=O)N[C@@H](CSc1ccccc1)[C@H](O)CN1C[C@H]2CCCC[C@H]2C[C@H]1C(=O)NC(C)(C)C` [nelfinavir], for which the “retrograde degeneration response (TUNEL) triggered by local Aβ1-42/Aβ42 stimuli” value in assay [1] is reported as “completely rescued”. Further, in assay [2], the “CREB3L2-ATF4 complexes/heterodimers in axons (PLA)” value is given as “caused the accumulation”.

The values above are taken from patent publication US20250027085A1, “COMPOSITIONS AND METHODS FOR TREATING ALZHEIMER'S DISEASE UTILIZING A TRANSCRIPTIONAL MASTER REGULATOR OF THE RETROMER COMPLEX” (THE TRUSTEES OF COLUMBIA UNIVERSITY IN THE CITY OF NEW YORK, priority 2022, published 2025).
